Where “and” joins values, the source holds several entries; their conditions need not be identical. Identical values can stand only once. Like-named read-outs stand apart in the source and are kept apart here.
How the values were obtained:
[1] = assay type: physicochemical, human; conditions: for Bench top stability, Mean concentration / Bench top stability, RE % (mean vs nominal): human, 22.5 h
Description: The following samples were also analyzed either in conjunction with one of the precision and accuracy runs or in one of the additional validation runs. Samples from six lots of control human plasma for specificity. Samples from six lots of control human plasma fortified with internal standard for specificity. Two concentration levels of unextracted QC-samples in triplicate (solvent standards) were analyzed for the evaluation of the recovery of sodium 2,2-dimethylbutyrate and DMV in human plasma. Two levels of QC samples (Low QC and High QC in triplicate) were subjected to three freeze/thaw cycles at approximately −70° C. prior to extraction to evaluate freeze/thaw stability. […] Triplicate low QC samples and triplicate high QC samples were stored for one month and three months in a freezer at approximately −70° C., and then extracted and analyzed to evaluate long term stability in human plasma. Two levels of extracted QC samples (Low QC and High QC) were re-analyzed after approximately 71 hours in the autosampler at room temperature to evaluate the extract autosampler stability. Two levels of extracted QC samples (Low QC and High QC) were re-analyzed after approximately 8 hours in the freezer at approximately −20° C. to evaluate the extract freeze stability. Three aliquots of a dilution QC sample diluted 10-fold. Triplicate dilutions of the old stock solution (stored at approximately 4° C.) and new stock solutions prepared at intervals of two weeks and one month. Statistical calculations in the report tables were calculated from unrounded concentration values taken directly from the raw data. The concentration values were rounded for display purposes.
(§1) Triplicate QC-Low and QC-High samples were extracted and analyzed after these storage conditions. The CV % values for the QC-Low and QC-High stability samples are 7.8% and 2.9%, respectively. To calculate the RE %, the measured mean concentration was compared to the nominal concentration. The RE % values for the QC-Low and QC-High stability samples are 11.8% and −3.4%, respectively.

[2] = Bench top stability in rat plasma; assay type: physicochemical; conditions: for Bench top stability, RE % (mean vs nominal): room temperature approximately 12.5 hours
Description: (§2) For the remaining validation tests, a calibration curve and triplicates QCs at the low, mid and high levels were analyzed with each sample set. The following samples were also analyzed either in conjunction with one of the precision and accuracy runs or in one of the additional validation runs: Samples from six lots of control rat plasma for specificity; Samples from six lots of control rat plasma fortified with internal standard for specificity; Two concentration levels of unextracted QC-samples in triplicate (solvent standards) were analyzed for the evaluation of the recovery of sodium 2,2-dimethylbutyrate and DMV in rat plasma; Two levels of QC samples (Low QC and High QC in triplicate) were subjected to three freeze/thaw cycles at approximately −70° C. prior to extraction to evaluate freeze/thaw stability; Two levels of QC samples (Low QC and High QC in triplicate) were placed on the bench top for approximately 17 hours prior to extraction for the evaluation of the bench top stability; Triplicate low QC samples and triplicate high QC samples were stored for one month and three months in a freezer at approximately −70° C., and then extracted and analyzed to evaluate long term stability in rat plasma; Three aliquots of a dilution QC sample diluted 10-fold.
as §1, with “Bench top stability was evaluated at room temperature for approximately 12.5 hours. Triplicate” for “Triplicate”, “6.3%” for “7.8%”, “11.7%,” for “2.9%,”, “7.6%” for “11.8%”, “9.1%,” for “−3.4%,”

[3] = Long-term freezer stability in dog plasma; assay type: physicochemical; conditions: approximately −70° C.
Description: as §2, with “control dog” for “control rat”, “for specificity.” for “for specificity; Samples from six lots of control rat plasma fortified with internal standard for specificity;”, “in dog plasma.” for “in rat plasma;”, “freeze/thaw stability.” for “freeze/thaw stability;”, “top stability.” for “top stability;”, “10-fold. QC-Low and QC-High plasma samples, which had been stored in a freezer at approximately −70° C. for one month and three months (99 days), were extracted in triplicate and analyzed. All CV % values and RE % values are within the acceptance criteria (≦15% and ±15% respectively). Therefore, sodium 2,2-dimethylbutyrate can be considered stable in dog plasma at approximately −70° C. for at least […].” for “10-fold.”

[4] = 1 Month Interval, QC-High, nominal 40.0 μg/mL
[5] = 1 Month Interval, QC-Low, nominal 0.60 μg/mL
[6] = 3 Month Interval (99 days), QC-High, nominal 40.0 μg/mL
[7] = 3 Month Interval (99 days), QC-Low, nominal 0.60 μg/mL

Time stable on bench top ([1]; human plasma, ambient bench top storage): 22.5 h | Bench top stability, Mean concentration ([1]; 0.6 μg/mL): 0.671 µg/mL | Bench top stability, RE % (mean vs nominal) ([1]; 0.6 μg/mL): 11.8% | Bench top stability, Mean concentration ([1]; 40 μg/mL): 38.7 µg/mL | Bench top stability, RE % (mean vs nominal) ([1]; 40 μg/mL): −3.4% | Time stable on bench top ([2]; ambient bench top storage): approximately 12.5 hours | Measured concentration, QC-High ([2]; bench top room temperature, nominal 40.0 μg/mL, individual replicates): 45.6 µg/mL and 37.9 µg/mL and 47.4 µg/mL | Mean concentration, QC-Low ([2]; bench top, nominal 0.60 μg/mL): 646 ng/mL | RE %, QC-Low ([2]; bench top, nominal 0.60 μg/mL): 7.6% | Mean concentration, QC-High ([2]; bench top, nominal 40.0 μg/mL): 43600 ng/mL | RE %, QC-High ([2]; bench top, nominal 40.0 μg/mL): 9.1% | Bench top stability, RE % (mean vs nominal) ([2]; QC-High): 9.1% | Bench top stability, RE % (mean vs nominal) ([2]; QC-Low): 7.6% | Time stable in freezer [3]: at least 99 days | Long-term freezer stability, Mean concentration [3, 4]: 36.1 µg/mL | Long-term freezer stability, RE % (mean vs nominal) [3, 4]: −9.9% | Long-term freezer stability, concentration found (replicate) [3, 4]: 36.4 µg/mL and 36.3 µg/mL and 35.5 µg/mL | Long-term freezer stability, Mean concentration [3, 5]: 0.575 µg/mL | Long-term freezer stability, RE % (mean vs nominal) [3, 5]: −4.2% | Long-term freezer stability, Mean concentration [3, 6]: 35.0 µg/mL | Long-term freezer stability, RE % (mean vs nominal) [3, 6]: −12.5% | Long-term freezer stability, concentration found (replicate) [3, 6]: 36.1 µg/mL and 37.1 µg/mL and 31.7 µg/mL | Long-term freezer stability, Mean concentration [3, 7]: 0.61 µg/mL | Long-term freezer stability, RE % (mean vs nominal) [3, 7]: 1.0%
Structure (SMILES): CCC(C)(C)C(=O)[O-].[Na+] [Sodium 2,2-Dimethylbutyrate]
Measured concentration, QC-Low ([2]; bench top room temperature, nominal 0.60 μg/mL, individual replicates): 0.600 µg/mL and 0.677 µg/mL and 0.660 µg/mL | Long-term freezer stability, concentration found (replicate) [3, 5]: 0.586 µg/mL and 0.567 µg/mL and 0.572 µg/mL | Long-term freezer stability, concentration found (replicate) [3, 7]: 0.629 µg/mL and 0.621 µg/mL and 0.568 µg/mL
